Measurements from US10238679B2, “Antitumor activity of multi-kinase inhibitors in colorectal cancer” (ENTRECHEM, S.L, priority 2014, dated 2019).

Tests used:
SW620 cells [1] = assay: MTT metabolization, SW620 cell proliferation; format: cell-based
Method: (§1) SW620, HT29 and SW48 were grown in DMEM; this medium was purchased from Sigma Aldrich, supplemented with 10% FBS, 100 mU/mL penicillin, 100 μg/mL streptomycin and 2 mM L-glutamine, in a 5% CO2 atmosphere at 37° C. These colorectal cancer cell lines were obtained from the American Type Culture Collection Cell Biology Collection (ATCC) (Manassas, Va.). The medium was changed every 2 days.
(§2) Cell proliferation and growth experiments were carried out using 3-(4,5-dimethylthiazol-2-yl)-2,5-diphenyltetrazolium bromide (MTT) uptake assays, where MTT is reduced to purple formazan by the mitochondria of living cells. Increase in cell number is detected by augmented MTT metabolization, and decrease in cell number is reflected by a decrease. SW620, HT29 and SW48 cells were plated at a density of 1×10^4 cells per well in 24-well plates and cultured overnight in DMEM supplemented with 10% FBS. The cells were treated with the drug at different concentrations to plot the dose—response curves in all cancer cell lines using in the study. […] After treatment, each well was replaced with 250 μL of fresh medium containing MTT ([…]) and incubated for 1 hour. The medium was then removed and 500 μL of dimethyl sulfoxide was added to each well. The plate was agitated in the dark for 5 minutes to dissolve the MTT-formazan crystals. The absorbance of the samples was recorded at 562 nm in a multi-well plate reader (BMG labtech). Results were plotted as the mean values of quadruplicates from a representative experiment that was repeated at least two independent times.
(§3) Combination index values less than 1 indicate synergism, values equal to 1 indicate an additive effect, whereas values greater than 1 indicate antagonism. Combination index values from three independent experiments were generated.

HT29 cells [2] = assay: MTT metabolization, HT29 cell proliferation; format: cell-based
Method: as §1, §2, §3

[3] = test system: SW620, HT29 and SW48 cells; assay: MTT metabolization, colorectal cancer cell lines (IC50 dose, line not specified); format: cell-based; settings: dose used for time-response curve
Method: as §2

SW620 cells [4] = assay: Cell cycle analysis by flow cytometry (propidium iodide), SW620; format: cell-based; settings: 500 nM, 24 h
Method: (§4) Cell cycle analyses and evaluation of apoptosis were performed by flow cytometry using propidium iodide and Annexin V, respectively.
(§5) For cell cycle analyses, SW620 and HT29 cells were cultured in 100-mm culture dishes, grown to 70% confluence, and treated with 500 nM Formula (III) for 24 h. Cell monolayers were then incubated in trypsin—EDTA and resuspended in 1 mL of PBS. After three washes with PBS, the cell pellets were resuspended in ice cold 70% ethanol for 2 min and centrifuged 5 min at 1800 rpm. The cell pellets were treated with 1 mL of propidium iodide (PI) staining solution (PBS containing 50 μg/mL of PI, 0.5% Tween 20, 0.1 μg/mL RNase A) (BD Biosciencies) and incubated in the dark for 1 h. DNA content and cell cycle analyses were performed by using a FACS canto II flow cytometer and the CellQuest software (BD Biosciences).

HT29 cells [5] = assay: Cell cycle analysis by flow cytometry (propidium iodide), HT29; format: cell-based; settings: 500 nM, 24 h
Method: as §4, §5

SW620 cells [6] = assay: Apoptosis by Annexin V flow cytometry, SW620; format: cell-based; settings: 48 hours
Method: as §4
(§6) For apoptosis analyses, SW620 and HT29 cell monolayers were incubated in trypsin—EDTA, washed twice with cold PBS, and then resuspended in binding buffer (10 mM HEPES free acid [pH 7.4], 140 mM NaCl, 2.5 mM CaCl2) at a concentration of 1×10^6 cells per mL. A total of 1×10^5 cells were incubated for 15 minutes in the dark with Annexin V-APC (BD Biosciences) and propidium iodide (PI) staining solution (5 μL Annexin […], 10 μL of PI [[…] final concentration], 400 μL binding buffer).

HT29 cells [7] = assay: Apoptosis by Annexin V flow cytometry, HT29; format: cell-based; settings: 48 hours
Method: as §4, §6

[8] = test system: phosphorylated γH2AX in SW620 cells; assay: Western blot of DNA damage marker phosphorylated γH2AX, SW620; format: cell-based; settings: 500 nM, time dependent up to 24 h
Method: (§7) Western-blot and phospho-array kits were used for evaluation of signaling intermediates. SW620 and HT29 cell lines were grown in DMEM 10% of FBS and at 70% confluence were treated with Formula (III) at 500 nM for 6, 12 and 24 hours. Cells were washed with phosphate-buffered saline (PBS) (137 mM NaCl, 2.7 mM KCl, 8 mM Na2HPO4, 1.5 mM KH2PO4) and lysed in ice-cold lysis buffer (20 mM Tris-HCl [pH 7.0], 140 mM NaCl, 50 mM EDTA, 10% glycerol, 1% Nonidet P-40, 1 μM pepstatin, 1 μg/mL aprotinin, 1 μg/mL leupeptin, 1 mM phenylmethyl sulfonyl fluoride, 1 mM sodium orthovanadate). Lysates were centrifuged at 10000 g at 4° C. for 10 minutes. The protein level in the supernatants was quantified using BCA protein assay (Sigma Aldrich). A total of 50 μg of protein of each sample was used for analysis. Samples were then boiled in electrophoresis sample buffer and placed on 6%-15% sodium dodecyl sulfate-polyacrylamide gel electrophoresis (SDS-PAGE) gels, depending on the molecular weight of the proteins to be analyzed. Briefly, after electrophoresis, proteins in gels were transferred to polyvinylidene difluoride membranes (Millipore Corporation). Membranes were blocked in Tris-buffered saline with Tween (TBST) (100 mM Tris [pH 7.5], 150 mM NaCl, 0.05% Tween 20) containing 1% of bovine serum albumin for 1 h and then incubated overnight with the corresponding antibody. […]

[9] = test system: phosphorylated γH2AX in HT29 cells; assay: Western blot of DNA damage marker phosphorylated γH2AX, HT29; format: cell-based; settings: 500 nM, time dependent up to 24 h
Method: as §7

[10] = test system: pS6, AKT, Src and Lck in SW620 cells; assay: Phospho-kinase dot blot array and Western blot, SW620; format: cell-based; settings: 500 nM, at 6 hours or 12 hours
Method: as §7

[11] = test system: pS6 and Src in HT29 cells; assay: Phospho-kinase dot blot array and Western blot, HT29; format: cell-based; settings: 500 nM, at 6 hours
Method: as §7

[12] = test system: a range of tyrosine and serine/threonine kinases; settings: biochemical assays; background statement; cited from earlier work
[13] = animal models; background statement; cited from earlier work
[14] = doses in the submicromolar (nanomolar) range

C[C@]12O[C@H](C[C@H](O)[C@H]1O)n1c3ccccc3c3c4c(c5c6ccccc6n2c5c31)C(=O)NC4=O [Formula (III)]
half-maximal inhibitory effect (MTT metabolization) (SW620 cells [1]): nanomolar range
growth inhibition (SW620 cells [1]; [14]): more than 80%
effect on proliferation compared with other inhibitors (SW620 cells [1]; vs lapatinib, sunitinib, crizotinib, BEZ235, NVP-BSK805, dasatinib, 0 to 2 μM, 72 h): strong effect
half-maximal inhibitory effect (MTT metabolization) (HT29 cells [2]): nanomolar range
growth inhibition (HT29 cells [2]; [14]): more than 80%
effect on proliferation compared with other inhibitors (HT29 cells [2]; vs lapatinib, sunitinib, crizotinib, BEZ235, NVP-BSK805, dasatinib): strong effect
IC50 [3]: 500 nM
effect on cell cycle (SW620 cells [4]): strong arrest in G2/M phase
effect on cell cycle (HT29 cells [5]): strong arrest in G2/M phase
apoptosis (Annexin staining) (SW620 cells [6]): induction of apoptosis
apoptosis (Annexin staining) (HT29 cells [7]): induction of apoptosis
phosphorylated levels of γH2AX (DNA damage) [8]: increase in the phosphorylated levels of γH2AX
phosphorylated levels of γH2AX (DNA damage) [9]: increase in the phosphorylated levels of γH2AX
phosphorylation/activation status of kinases pS6, AKT, Src and Lck [10]: strongly inhibited
phosphorylation/activation status of pS6 and Src [11]: inhibited
affinity towards and inhibition of kinase activity [12]: nanomolar and subnanomolar range
anti-tumoral activity in vivo [13]: anti-tumoral activity
toxicities in vivo [13]: no evidence of toxicities
